Assay results as given in US20120129842A1, “BISTHIAZOLE INHIBITORS OF PRO-MATRIX METALLOPROTEINASE ACTIVATION” (priority 2010, published 2012).
Where a name gives a salt, the structure may show the parent alone.

How the values were obtained:
[1] = target: T1, proMMP9(20-445;ΔFnII) (SEQ ID NO:6) (Homo sapiens, UniProt P14780, DEL216-390); test: ThermoFluor binding assay with proMMP9(20-445;ΔFnII); details: pH 7.0
T1 construct: start methionine (N); made in house; host or cells: E. coli BL21(DE3) RIL
T1 sequence (P14780 with tags, fused parts or gaps DEL216-390): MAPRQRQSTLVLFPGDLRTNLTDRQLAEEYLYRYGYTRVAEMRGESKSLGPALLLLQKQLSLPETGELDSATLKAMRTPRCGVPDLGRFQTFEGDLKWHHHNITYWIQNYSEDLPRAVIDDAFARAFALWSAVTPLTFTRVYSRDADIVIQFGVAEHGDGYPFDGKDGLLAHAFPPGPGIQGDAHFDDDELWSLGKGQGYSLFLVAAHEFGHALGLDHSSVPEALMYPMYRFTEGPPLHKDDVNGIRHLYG
Procedure, shortened: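 proMMP9(20-445;ΔFnII) at 2.8 μM with 50 μM 1,8-ANS in 50 mM HEPES pH 7.0, 100 mM NaCl, 0.001% Tween-20, 2.5 mM MgCl2, 300 μM CaCl2; compounds serially diluted in DMSO. Heated 40–90 °C at 1 °C/min, fluorescence read at 500±25 nm. Tm fit by standard equations; binding fit using DSC/TF-derived thermodynamic parameters.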

[2] = target: T2, proMMP9(67-444;ΔFnII) (SEQ ID NO:5) (Homo sapiens, UniProt P14780, DEL216-390); test: ThermoFluor binding assay with proMMP9(67-444;ΔFnII); details: pH 7.0
T2 construct: start methionine (N); made in house; host or cells: E. coli BL21(DE3) RIL
T2 sequence (P14780 with tags, fused parts or gaps DEL216-390): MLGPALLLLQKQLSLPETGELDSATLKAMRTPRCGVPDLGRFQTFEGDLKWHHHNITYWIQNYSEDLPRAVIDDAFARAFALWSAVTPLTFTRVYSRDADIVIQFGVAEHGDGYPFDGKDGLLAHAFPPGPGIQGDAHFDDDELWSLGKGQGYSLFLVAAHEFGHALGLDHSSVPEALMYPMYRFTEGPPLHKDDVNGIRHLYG
Procedure, shortened: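 Thermal shift binding with 3.5 μM proMMP9(67-444;ΔFnII) and 50 μM 1,8-ANS in 50 mM HEPES pH 7.0, 100 mM NaCl, 2.5 mM MgCl2, 300 μM CaCl2, 0.001% Tween-20, with serially diluted compound. Heated 40 to 90° C at 1° C/min; fluorescence-derived Tm fitted using DSC/ThermoFluor thermodynamic parameters.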

[3] = target: T3, full-length proMMP9(1-707) (SEQ ID NO:1) (Homo sapiens, UniProt P14780, R574P); test: proMMP9/MMP3 P126 Activation Assay; format: biochemical; details: 20 nM proMMP9, 20 nM MMP3, 80 min 37° C.
T3 construct: made in house; host or cells: HEK293 (proMMP9, secreted); E. coli (MMP3)
T3 sequence (P14780 20-707 R574P): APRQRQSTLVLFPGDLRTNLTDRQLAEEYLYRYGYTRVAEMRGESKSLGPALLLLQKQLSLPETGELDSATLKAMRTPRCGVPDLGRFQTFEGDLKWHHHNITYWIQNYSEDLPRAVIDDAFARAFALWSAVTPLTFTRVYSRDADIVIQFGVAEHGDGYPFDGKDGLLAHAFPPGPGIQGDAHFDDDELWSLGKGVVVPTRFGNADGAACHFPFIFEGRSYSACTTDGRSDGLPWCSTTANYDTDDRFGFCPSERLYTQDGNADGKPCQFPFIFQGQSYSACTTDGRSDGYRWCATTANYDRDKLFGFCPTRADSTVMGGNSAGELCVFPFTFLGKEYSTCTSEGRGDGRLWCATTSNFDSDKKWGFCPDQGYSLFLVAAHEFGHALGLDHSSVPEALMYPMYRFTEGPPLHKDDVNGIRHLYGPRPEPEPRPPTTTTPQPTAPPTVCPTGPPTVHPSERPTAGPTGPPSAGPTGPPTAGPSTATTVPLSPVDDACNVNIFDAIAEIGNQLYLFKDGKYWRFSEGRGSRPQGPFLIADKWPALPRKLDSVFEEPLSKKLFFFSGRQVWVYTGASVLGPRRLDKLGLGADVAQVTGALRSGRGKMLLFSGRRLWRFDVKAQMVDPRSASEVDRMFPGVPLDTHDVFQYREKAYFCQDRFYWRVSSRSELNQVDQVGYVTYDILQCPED
Method: The reaction volume was 50 μL. […] Reactivity of residual MMP3 towards P-126 substrate was minimal under these conditions.

[4] = target: proMMP13(1-268) (SEQ ID NO:7) (Homo sapiens, UniProt P45452); test: ThermoFluor binding assay with proMMP13(1-268); parameters: 6xHis (C); made in house; details: pH 7.0
Method: The ThermoFluor® (TF) assay is a 384-well plate-based binding assay that measures thermal stability of proteins (Biomol Screen 2001, 6, 429-40; Biochemistry 2005, 44, 5258-66). The experiments were carried out using instruments available from Johnson & Johnson Pharmaceutical Research & Development, LLC. TF dye used in all experiments was […] (1,8-ANS) (Invitrogen: A-47).
Compounds were arranged in a pre-dispensed plate (Greiner Bio-one: 781280), wherein compounds were serially diluted in 100% DMSO across 11 columns within a series. Columns 12 and 24 were used as DMSO reference and contained no compound. For multiple compound concentration-response experiments, the compound aliquots ([…]) were robotically predispensed directly into black 384-well polypropylene PCR microplates (Abgene: TF-0384/k) using a Cartesian Hummingbird liquid handler (DigiLab, Holliston, Mass.). Following compound dispense, protein and dye solutions were added to achieve the final assay volume of 3 μL. The assay solutions were overlayed with 1 μL of silicone oil (Fluka, type DC 200: 85411) to prevent evaporation.
Assay plates were robotically loaded onto a thermostatically controlled PCR-type thermal block and then heated from 40 to 90° C. at a ramp-rate of 1° C./min for all experiments. Fluorescence was measured by continuous illumination with UV light (Hamamatsu LC6) supplied via fiber optics and filtered through a band-pass filter (380-400 nm; >6 OD cutoff). Fluorescence emission of the entire 384-well plate was detected by measuring light intensity using a CCD camera (Sensys, Roper Scientific) filtered to detect 500±25 nm, resulting in simultaneous and independent readings of all 384 wells. A single image with 20-sec exposure time was collected at each temperature, and the sum of the pixel intensity in a given area of the assay plate was recorded vs temperature and fit to standard equations to yield the Tm (J Biomol Screen 2001, 6, 429-40).
Thermodynamic parameters necessary for fitting compound binding for each proMMP were estimated by differential scanning calorimetry (DSC) and from ThermoFluor® data. The heat capacity of unfolding for each protein was estimated from the molecular weight and from ThermoFluor® dosing data.
The proMMP13(1-268) (SEQ ID NO:7) protein sample preparations included a desalting buffer exchange step via a PD-10 gravity column (GE Healthcare). The desalting buffer exchange was performed prior to diluting the protein to the final assay concentration of 3.5 μM. The concentration of proMMP13(1-268) (SEQ ID NO:7) was estimated spectrophotometrically based on a calculated extinction coefficient of ε280=37000 M^−1cm^−1, a calculated molecular weight of 30.8 kDa, and calculated pI of 5.33. ThermoFluor® reference conditions were defined as follows: 100 μg/mL proMMP13(1-268) (SEQ ID NO:7), 25 μM 1,8-ANS, pH 7.0 Buffer (50 mM HEPES pH 7.0, 100 mM NaCl, 0.001% Tween-20, 2.5 mM MgCl2, 300 μM CaCl2). The thermodynamic parameters for proMMP13(1-268) (SEQ ID NO:7) are as follows: Tm (° C.)=67 (+/−0.1), ΔUH(Tm) (cal mol^−1)=107000(+/−5000), ΔUS(Tm) (cal mol^−1 K^−1)=318, ΔUCp (cal mol^−1 K^−1)=2600.

SMILES | Kd [1] | Kd [2] | IC50 [3] | Kd [4]
Cc1nc(Nc2cccnc2)sc1-c1csc(Nc2cc(C(N)=O)ccc2OC(C)C)n1 [Example 95, 4-Isopropoxy-3-[4′-methyl-2′-(pyridin-3-ylamino)-[4,5′]bithiazolyl-2-ylamino]-benzamide.TFA] | 0.22 µM | 2.8 µM | 0.41 µM | 4.1 µM
CC(=O)Nc1nc(C)c(-c2csc(Nc3cc(C(N)=O)ccc3Cl)n2)s1 [Example 26, 3-(2′-Acetylamino-4′-methyl-[4,5′]bithiazolyl-2-ylamino)-4-chloro-benzamide.HBr] | 8.9 µM | 3 µM | > 20 µM | 84 µM
Cc1nc(N(C)C)sc1-c1csc(Nc2cc(C(N)=O)ccc2OC(C)C)n1 [Example 88, 3-(2′-Dimethylamino-4′-methyl-[4,5′]bithiazolyl-2-ylamino)-4-isopropoxy-benzamide.TFA] | 0.1 µM | 0.65 µM | 0.38 µM | 0.95 µM
Cc1nc(C(=O)NC2CCN(C)CC2)sc1-c1csc(Nc2cc(C(N)=O)ccc2OC(C)C)n1 [Example 113, 2-(5-Carbamoyl-2-isopropoxy-phenylamino)-4′-methyl-[4,5′]bithiazolyl-2′-carboxylic acid (1-methyl-piperidin-4-yl)-amide.TFA] | 1.5 µM | 1.9 µM | 0.57 µM | > 57 µM
Cc1nc(CN(C)CCN(C)C)sc1-c1csc(Nc2cc(C(N)=O)ccc2OC(C)C)n1 [Example 133, 3-(2′-{[(2-Dimethylamino-ethyl)-methyl-amino]-methyl}-4′-methyl-[4,5]bithiazolyl-2-ylamino)-4-isopropoxy-benzamide.TFA] | 0.97 µM | 4 µM | 0.66 µM | 3.8 µM
COc1ccc(-c2ccnn2C)cc1Nc1nc(-c2sc(C)nc2C)cs1 [Example 139] | 75 µM | 11 µM | 5.2 µM | 8.1 µM
Cc1nc(C)c(-c2csc(Nc3cc(C(=O)O)ccc3OC(C)C)n2)s1 [Example 76, 3-(2′,4′-Dimethyl-[4,5′]bithiazolyl-2-ylamino)-4-isopropoxy-benzoic acid] | 0.57 µM | 0.78 µM | 0.43 µM | 0.37 µM
COc1ccc(S(C)(=O)=O)cc1Nc1nc(-c2sc(NC(C)=O)nc2C)cs1 [Example 74, N-[2-(5-Methanesulfonyl-2-methoxy-phenylamino)-4′-methyl-[4,5]bithiazolyl-2′-yl]acetamide.HBr] | 1.8 µM | 0.5 µM | 2.5 µM | 2.4 µM
CCOc1ccc(C(N)=O)cc1Nc1nc(-c2sc(C(=O)N3CCCN(CC)CC3)nc2C)cs1 [Example 120, 4-Ethoxy-3-[2′-(4-ethyl-[1,4]diazepane-1-carbonyl)-4′-methyl-[4,5]bithiazolyl-2-ylamino]-benzamide.TFA] | 2.5 µM | 1.6 µM | 0.48 µM | 5.6 µM
COc1cc2c(cc1Nc1nc(-c3sc(C)nc3C)cs1)C(=O)NC2 [Example 31, 6-(2′,4′-Dimethyl-[4,5′]bithiazolyl-2-ylamino)-5-methoxy-2,3-dihydro-isoindol-1-one] | 9 µM | 33 µM | ~7 µM | 49 µM
CCOc1ccc(C(N)=O)cc1Nc1nc(-c2sc(NC(C)=O)nc2C)cs1 [Example 8, 3-(2′-Acetylamino-4′-methyl-[4,5′]bithiazolyl-2-ylamino)-4-ethoxy-benzamide.TFA] | 1.3 µM | 0.56 µM | 0.1 µM | 39 µM
Cc1nc(C)c(-c2csc(Nc3cc(S(C)(=O)=O)ccc3OC(C)C)n2)s1 [Example 45, (2′,4′-Dimethyl-[4,5′]bithiazolyl-2-yl)-(2-isopropoxy-5-methanesulfonyl-phenyl)-amine.TFA] | 0.24 µM | 0.98 µM | 0.83 µM | 0.2 µM
Cc1nc(N)sc1-c1csc(Nc2cc(C(N)=O)ccc2OC(C)C)n1 [Example 2, 3-(2′-Amino-4′-methyl-[4,5′]bithiazolyl-2-ylamino)-4-isopropoxy-benzamide.HBr] | 0.021 µM | 0.16 µM | 0.16 µM | 0.081 µM
COc1ccc(S(C)(=O)=O)cc1Nc1nc(-c2sc(N)nc2C)cs1 [Example 75, N^2-(5-Methanesulfonyl-2-methoxy-phenyl)-4′-methyl-[4,5′]bithiazolyl-2,2′-diamine.HBr] | 1.1 µM | 0.6 µM | 1.6 µM | 1.5 µM
CCOC(=O)c1ccc(OCC)c(Nc2nc(-c3sc(NC(C)=O)nc3C)cs2)c1 [Example 83, 3-(2′-Acetylamino-4′-methyl-[4,5′]bithiazolyl-2-ylamino)-4-ethoxy-benzoic acid ethyl ester.HBr] | 3.9 µM | 0.49 µM | 0.48 µM | 1.5 µM
CCS(=O)(=O)c1ccc(OC)c(Nc2nc(-c3sc(N)nc3C)cs2)c1 [Example 51, N^2-(5-Ethanesulfonyl-2-methoxy-phenyl)-4′-methyl-[4,5′]bithiazolyl-2,2′-diamine.TFA] | 1.1 µM | 3 µM | 4.1 µM | 1.9 µM
COc1ccc(-c2nccs2)cc1Nc1nc(-c2sc(C)nc2C)cs1 [Example 142, (2′,4′-Dimethyl-[4,5′]bithiazolyl-2-yl)-(2-methoxy-5-thiazol-2-yl-phenyl)-amine.TFA] | > 95 µM | 58 µM | 11 µM | 6.7 µM
COc1ccc(C(=O)O)cc1Nc1nc(-c2sc(NC(C)=O)nc2C)cs1 [Example 57, 3-(2′-Acetylamino-4′-methyl-[4,5′]bithiazolyl-2-ylamino)-4-methoxy-benzoic acid.HBr] | 11 µM | 1.7 µM | 1.9 µM | > 95 µM
